Results: US10597364B2, “Anthelmintic compounds, compositions and method of using thereof” (priority 2015, dated 2020)
Where two headings read alike, the source gives them in different places.

Legend:
[1] = system: microfilaria of Dirofilaria immitis; test: Method C: microfilaria of Dirofilaria immitis motility screen; type: cell-based; conditions: read-out: inhibition of the microfilaria's motility
[2] = human, Caco-2, pH 6.5
Experimental: Permeability of Compounds.
An in vitro model utilizing Caco-2/TC7 cells is employed to assess the permeability characteristics of new chemical entities (NCEs).
The permeability studies were performed under standard conditions in the apical to basolateral (A→B) direction with a pH gradient and a BSA gradient (standard apical medium (0.5% BSA at pH 6.5)/standard basal medium (5% BSA at pH 7.4)); conditions that most closely reflect the conditions in the in vivo situation. Samples were deproteinized by the addition of 400 μl acetonitrile to 200 μl sample, followed by a 20-minute centrifugation at 1730 g. Compound solubilisation: compound solutions at final concentrations of 20 μM were prepared following dilutions of stock solutions (starting from 10 mM in DMSO) in HBSS. Final concentration of DMSO was adjusted to 1%. Analytical conditions: Supernatants recovered following centrifugation were analysed by LC/MS/MS using a reverse phase column and the mobile phases delivered at 0.3 ml/minute in a gradient: water (A) and acetonitrile (B) (each with 0.1% formic acid).
Every experiment (n) represents the mean of 3 filters per experiment.

Haemonchus contortus = test: Method A: Haemonchus contortus L1 larval development/motility screen in microtitre plate; type: cell-based; conditions: 96 h, read-out: motility inhibition

O=C(CC1CCCC1)N1CCN(c2cc(O[C@H]3CC[C@H](Nc4ccc([N+](=O)[O-])c(C(F)(F)F)c4)CC3)ccn2)CC1 [Compound 3, 2-Cyclopentyl-1-[4-(4-[[4-[[4-nitro-3-(trifluoromethyl)phenyl]amino]cyclohexyl]oxy]pyridin-2-yl)piperazin-1-yl]ethan-1-one]
inhibition at 10 µM ([1]; 24 h): ≥ 90% | Papp A→B at 20 μM [2]: 2.64 ×10⁻⁶ cm/s

O=[N+]([O-])c1ccc(N[C@H]2CC[C@H](Oc3cncc(N4CCN(Cc5ccc(F)cc5)CC4)c3)CC2)cc1C(F)(F)F [Compound 4, 4-nitro-N-[4-[(5-[4-[(4-fluorophenyl)methyl]piperazin-1-yl]pyridin-3-yl)oxy]cyclohexyl]-3-(trifluoromethyl)aniline]
inhibition at 1 µM ([1]; 24 h): ≥ 90% | inhibition at 10 µM ([1]; 24 h): ≥ 90% | Papp A→B at 20 μM [2]: 1.84 ×10⁻⁶ cm/s

O=C(CC1CCC1)N1CCN(c2cc(O[C@H]3CC[C@H](Nc4ccc([N+](=O)[O-])c(C(F)(F)F)c4)CC3)ccn2)CC1 [Compound 8]
inhibition at 5 µM (Haemonchus contortus): ≥ 90% | inhibition at 10 µM ([1]; 24 h): ≥ 90% | Papp A→B at 20 μM [2]: 4.01 ×10⁻⁶ cm/s

O=C(OC1CCCC1)N1CCN(c2ccnc(O[C@H]3CC[C@H](Nc4ccc([N+](=O)[O-])c(C(F)(F)F)c4)CC3)c2)CC1 [Compound 9, cyclopentyl 4-[2-[(4-[[4-nitro-3-(trifluoromethyl)phenyl]amino]cyclohexyl)oxy]pyridin-4-yl]piperazine-1-carboxylate]
inhibition at 5 µM (Haemonchus contortus): ≥ 90% | Papp A→B at 20 μM [2]: 1.08 ×10⁻⁶ cm/s

CCCCC(=O)N1CCN(c2cc(O[C@H]3CC[C@H](Nc4ccc([N+](=O)[O-])c(C(F)(F)F)c4)CC3)ccn2)CC1 [Compound 10]
inhibition at 5 µM (Haemonchus contortus): ≥ 90% | Papp A→B at 20 μM [2]: 5.81 ×10⁻⁶ cm/s

O=C(Oc1ccc(F)cc1)N1CCN(c2cncc(O[C@H]3CC[C@H](Nc4ccc([N+](=O)[O-])c(C(F)(F)F)c4)CC3)c2)CC1 [Compound 11]
inhibition at 5 µM (Haemonchus contortus): ≥ 90% | Papp A→B at 20 μM [2]: 0.55 ×10⁻⁶ cm/s

CC(C)(C)OC(=O)N1CCN(c2ccnc(O[C@H]3CC[C@H](Nc4ccc([N+](=O)[O-])c(C(F)(F)F)c4)CC3)c2)CC1 [Compound 13]
inhibition at 5 µM (Haemonchus contortus): ≥ 90% | inhibition at 5 ppm ([1]; 24 h): ≥ 90% | Papp A→B at 20 μM [2]: 0.78 ×10⁻⁶ cm/s

O=C(CC1CCCCC1)N1CCN(c2cc(O[C@H]3CC[C@H](Nc4ccc([N+](=O)[O-])c(C(F)(F)F)c4)CC3)ccn2)CC1 [Compound 14]
inhibition at 5 µM (Haemonchus contortus): ≥ 90% | inhibition at 10 µM ([1]; 24 h): ≥ 90% | Papp A→B at 20 μM [2]: 2.28 ×10⁻⁶ cm/s

CC(C)(C)OC(=O)N1CCN(c2cncc(O[C@H]3CC[C@H](Nc4ccc([N+](=O)[O-])c(C(F)(F)F)c4)CC3)c2)CC1 [Compound 15]
inhibition at 5 µM (Haemonchus contortus): ≥ 90% | Papp A→B at 20 μM [2]: 2.07 ×10⁻⁶ cm/s

CCCC(=O)N1CCN(c2cncc(O[C@H]3CC[C@H](Nc4ccc([N+](=O)[O-])c(C(F)(F)F)c4)CC3)c2)CC1 [Compound 31]
inhibition at 5 µM (Haemonchus contortus): ≥ 90% | Papp A→B at 20 μM [2]: 10.7 ×10⁻⁶ cm/s

CCC(=O)N1CCN(c2cncc(O[C@H]3CC[C@H](Nc4ccc([N+](=O)[O-])c(C(F)(F)F)c4)CC3)c2)CC1 [Compound 64]
inhibition at 5 µM (Haemonchus contortus): ≥ 90% | inhibition at 5 ppm ([1]; 24 h): ≥ 90%

CC(C)(C)NC(=O)N1CCN(c2ccnc(O[C@H]3CC[C@H](Nc4ccc([N+](=O)[O-])c(C(F)(F)F)c4)CC3)c2)CC1 [Compound 65, N-tert-butyl-4-[2-[(4-[[4-nitro-3-(trifluoromethyl)phenyl]amino]cyclohexyl)oxy]pyridin-4-yl]piper-azine-1-carboxamide]
inhibition at 5 µM (Haemonchus contortus): ≥ 90% | inhibition at 5 ppm ([1]; 24 h): ≥ 90%

CC(C)(C)NC(=O)N1CCN(c2cncc(O[C@H]3CC[C@H](Nc4ccc([N+](=O)[O-])c(C(F)(F)F)c4)CC3)c2)CC1 [Compound 66]
inhibition at 5 µM (Haemonchus contortus): ≥ 90% | inhibition at 5 ppm ([1]; 24 h): ≥ 90%

CC(C)(C)CN1CCN(c2cc(O[C@H]3CC[C@H](Nc4ccc([N+](=O)[O-])c(C(F)(F)F)c4)CC3)ccn2)CC1 [Compound 67]
inhibition at 5 µM (Haemonchus contortus): ≥ 90% | inhibition at 10 µM ([1]; 10 μM, 24 hours): ≥ 90%

O=[N+]([O-])c1ccc(N[C@H]2CC[C@H](Oc3cc(N4CCN(C(=S)Nc5ccc(C(F)(F)F)cc5)CC4)ccn3)CC2)cc1C(F)(F)F [Compound 68, 4-[2-[(4-[[4-nitro-3-(trifluoromethyl)phenyl]amino]cyclohexyl)oxy]pyridin-4-yl]-N-[4-(trifluoromethyl)phenyl]piperazine-1-carbothioamide]
inhibition at 5 µM (Haemonchus contortus): ≥ 90% | inhibition at 5 ppm ([1]; 24 h): ≥ 90%

O=C(NC1CCCC1)N1CCN(c2ccnc(O[C@H]3CC[C@H](Nc4ccc([N+](=O)[O-])c(C(F)(F)F)c4)CC3)c2)CC1 [Compound 69]
inhibition at 5 µM (Haemonchus contortus): ≥ 90% | inhibition at 10 µM ([1]; 24 h): ≥ 90%

CCOCCC(=O)N1CCN(c2cc(O[C@H]3CC[C@H](Nc4ccc([N+](=O)[O-])c(C(F)(F)F)c4)CC3)ccn2)CC1 [Compound 70]
inhibition at 5 µM (Haemonchus contortus): ≥ 90% | inhibition at 10 µM ([1]; 24 h): ≥ 90%

O=C(CC(F)(F)F)N1CCN(c2cc(O[C@H]3CC[C@H](Nc4ccc([N+](=O)[O-])c(C(F)(F)F)c4)CC3)ccn2)CC1 [Compound 71]
inhibition at 5 µM (Haemonchus contortus): ≥ 90% | inhibition at 10 µM ([1]; 24 h): ≥ 90%

COCCOCC(=O)N1CCN(c2cc(O[C@H]3CC[C@H](Nc4ccc([N+](=O)[O-])c(C(F)(F)F)c4)CC3)ccn2)CC1 [Compound 72]
inhibition at 5 µM (Haemonchus contortus): ≥ 90% | inhibition at 10 µM ([1]; 24 h): ≥ 90%

COC(=O)N1CCN(c2cc(O[C@H]3CC[C@H](Nc4ccc([N+](=O)[O-])c(C(F)(F)F)c4)CC3)ccn2)CC1 [Compound 75]
inhibition at 5 µM (Haemonchus contortus): ≥ 90% | inhibition at 10 µM ([1]; 10 μM, 24 hours): ≥ 90%

O=[N+]([O-])c1ccc(N[C@H]2CC[C@H](Oc3ccnc(N4CCN(C/C=C/c5ccc(C(F)(F)F)cc5)CC4)c3)CC2)cc1C(F)(F)F [Compound 76]
inhibition at 5 µM (Haemonchus contortus): ≥ 90% | inhibition at 5 ppm ([1]; 24 h): ≥ 90%

CCCN1CCN(c2cncc(O[C@H]3CC[C@H](Nc4ccc([N+](=O)[O-])c(C(F)(F)F)c4)CC3)c2)CC1 [Compound 77]
inhibition at 5 µM (Haemonchus contortus): ≥ 90% | inhibition at 10 µM ([1]; 24 h): ≥ 90%

CCCN1CCN(c2cc(O[C@H]3CC[C@H](Nc4ccc([N+](=O)[O-])c(C(F)(F)F)c4)CC3)ccn2)CC1 [Compound 78]
inhibition at 5 µM (Haemonchus contortus): ≥ 90% | inhibition at 10 µM ([1]; 10 μM, 24 hours): ≥ 90%

O=[N+]([O-])c1ccc(N[C@H]2CC[C@H](Oc3cncc(N4CCN(C(=S)NC5CCCC5)CC4)c3)CC2)cc1C(F)(F)F [Compound 79]
inhibition at 5 µM (Haemonchus contortus): ≥ 90% | inhibition at 5 ppm ([1]; 24 h): ≥ 90%

O=[N+]([O-])c1ccc(N[C@H]2CC[C@H](Oc3ccc(N4CCN(C/C=C/c5ccc(C(F)(F)F)cc5)CC4)nc3)CC2)cc1C(F)(F)F [Compound 80]
inhibition at 5 µM (Haemonchus contortus): ≥ 90% | inhibition at 1 ppm ([1]; 24 h): ≥ 90% | inhibition at 5 ppm ([1]; 24 h): ≥ 90%

O=[N+]([O-])c1ccc(N[C@H]2CC[C@H](Oc3cc(N4CCN(C(=S)NC5CCCC5)CC4)ccn3)CC2)cc1C(F)(F)F [Compound 81]
inhibition at 5 µM (Haemonchus contortus): ≥ 90% | inhibition at 1 ppm ([1]; 24 h): ≥ 90% | inhibition at 5 ppm ([1]; 24 h): ≥ 90%

O=C(NC1CCCC1)N1CCN(c2cncc(O[C@H]3CC[C@H](Nc4ccc([N+](=O)[O-])c(C(F)(F)F)c4)CC3)c2)CC1 [Compound 82]
inhibition at 5 µM (Haemonchus contortus): ≥ 90% | inhibition at 10 µM ([1]; 24 h): ≥ 90%

CC(C)(C)OC(=O)N1CCN(c2ccc(O[C@H]3CC[C@H](Nc4ccc([N+](=O)[O-])c(C(F)(F)F)c4)CC3)cn2)CC1 [Compound 83]
inhibition at 5 µM (Haemonchus contortus): ≥ 90% | inhibition at 5 ppm ([1]; 24 h): ≥ 90%

CCCNC(=O)N1CCN(c2ccnc(O[C@H]3CC[C@H](Nc4ccc([N+](=O)[O-])c(C(F)(F)F)c4)CC3)c2)CC1 [Compound 85]
inhibition at 5 µM (Haemonchus contortus): ≥ 90% | inhibition at 5 ppm ([1]; 5 ppm, 24 hours): ≥ 90%

O=[N+]([O-])c1ccc(N[C@H]2CC[C@H](Oc3ccnc(N4CCN(Cc5nc6cc(C(F)(F)F)ccc6s5)CC4)c3)CC2)cc1C(F)(F)F [Compound 86]
inhibition at 5 µM (Haemonchus contortus): ≥ 90% | inhibition at 5 ppm ([1]; 24 h): ≥ 90%

CCCN1CCN(c2ccnc(O[C@H]3CC[C@H](Nc4ccc([N+](=O)[O-])c(C(F)(F)F)c4)CC3)c2)CC1 [Compound 87]
inhibition at 5 µM (Haemonchus contortus): ≥ 90% | inhibition at 10 µM ([1]; 24 h): ≥ 90%

O=[N+]([O-])c1ccc(N[C@H]2CC[C@H](Oc3cc(N4CCN(C(=S)Nc5ccc(F)cc5)CC4)ccn3)CC2)cc1C(F)(F)F [Compound 89]
inhibition at 5 µM (Haemonchus contortus): ≥ 90% | inhibition at 5 ppm ([1]; 24 h): ≥ 90%

CCCNC(=O)N1CCN(c2cncc(O[C@H]3CC[C@H](Nc4ccc([N+](=O)[O-])c(C(F)(F)F)c4)CC3)c2)CC1 [Compound 95]
inhibition at 5 µM (Haemonchus contortus): ≥ 90% | inhibition at 10 µM ([1]; 10 μM, 24 hours): ≥ 90%

CCNC(=O)N1CCN(c2ccnc(O[C@H]3CC[C@H](Nc4ccc([N+](=O)[O-])c(C(F)(F)F)c4)CC3)c2)CC1 [Compound 96]
inhibition at 5 µM (Haemonchus contortus): ≥ 90% | inhibition at 10 µM ([1]; 24 h): ≥ 90%

O=[N+]([O-])c1ccc(N[C@H]2CC[C@H](Oc3ccc(N4CCN(c5ccc6cc(C(F)(F)F)ccc6n5)CC4)nc3)CC2)cc1C(F)(F)F [Compound 102]
Papp A→B at 20 μM [2]: 0.01 ×10⁻⁶ cm/s

O=C(Nc1ccc(F)cc1)N1CCN(c2cncc(O[C@H]3CC[C@H](Nc4ccc([N+](=O)[O-])c(C(F)(F)F)c4)CC3)c2)CC1 [Compound 106]
inhibition at 5 µM (Haemonchus contortus): ≥ 90% | inhibition at 10 µM ([1]; 10 μM, 24 hours): ≥ 90%

N#Cc1ccc(N[C@H]2CC[C@H](Oc3ccnc(N4CCN(C(=O)CC5CCCC5)CC4)c3)CC2)cc1C(F)(F)F [Compound 177]
inhibition at 5 µM (Haemonchus contortus): ≥ 90% | inhibition at 10 µM ([1]; 24 h): ≥ 90%

N#Cc1ccc(N[C@H]2CC[C@H](Oc3cncc(N4CCN(Cc5ccc(C(F)(F)F)cc5)CC4)c3)CC2)cc1C(F)(F)F [Compound 181]
inhibition at 5 µM (Haemonchus contortus): ≥ 90% | inhibition at 10 µM ([1]; 24 h): ≥ 90%

N#Cc1ccc(N[C@H]2CC[C@H](Oc3cc(N4CCN(C(=O)CC5CCCC5)CC4)ccn3)CC2)cc1C(F)(F)F [Compound 183]
inhibition at 5 µM (Haemonchus contortus): ≥ 90% | inhibition at 10 µM ([1]; 24 h): ≥ 90%

O=C(CC1CCCC1)N1CCN(c2cc(O[C@H]3CC[C@H](Nc4ccc(S(=O)(=O)C(F)(F)F)cc4)CC3)ccn2)CC1 [Compound 188]
inhibition at 5 µM (Haemonchus contortus): ≥ 90% | inhibition at 10 µM ([1]; 24 h): ≥ 90%

O=C(OC1CCCC1)N1CCN(c2cncc(O[C@H]3CC[C@H](Nc4ccc([N+](=O)[O-])c(C(F)(F)F)c4)CC3)c2)CC1 [Compound 196, cyclopentyl 4-(5-[[4-[[4-nitro-3-(trifluoromethyl)phenyl]amino]cyclohexyl]oxy]pyridin-3-yl)piperazine-1-carboxylate]
inhibition at 5 µM (Haemonchus contortus): ≥ 90% | inhibition at 5 ppm ([1]; 24 h): ≥ 90%
